# Data: patent US12638394B2, “Skin sensitization measuring reagent, method for measuring skin sensitization, and compound” (FUJIFILM Corporation, priority 2019, dated 2026)
# Test: not given
# Conditions: class given for the evaluation substance; cited from earlier work
row,SMILES,Skin sensitization
1,Cn1sccc1=O [2-Methyl-2H-isothiazol-3-one],Moderate
2,CC(C=O)Cc1ccc(C(C)C)cc1 (centres unmarked) [Cyclamen aldehyde],Strong sensitizer
3,O=c1c(-c2ccccc2)c1-c1ccccc1 [Diphenylcyclopropenone],Strong sensitizer
4,C=C(C)C(=O)OCCOC(=O)C(=C)C [Ethylene glycol dimethacrylate],Strong sensitizer
5,CC(CC=O)CCCC(C)(C)O (centres unmarked) [Hydroxycitronellal],Strong sensitizer
6,CCCCCCCCC(=O)Cl [Nonanoyl chloride],Moderate
7,O=C(O)c1ccccc1O [Salicylic acid],Non-sensitizer
8,O=C(O)c1ccc2c(c1)C(=O)OC2=O [Trimellitic anhydride],Strong sensitizer

# Test: Depletion of nucleophilic reagent by evaluation substance (HPLC)
# Conditions: 1 mmol/L test substance solution, 25° C., 24 hours
# Excerpt: (§1) One solvent with which a 1 mmol/L test substance solution can be prepared is selected according to the following order of priority: water, acetonitrile, acetone, and a 5% solution of DMSO in acetonitrile. If water, acetonitrile, or acetone is selected, a 20 mmol/L test substance solution is first prepared. A suitable amount of the test substance is weighed and completely dissolved by adding the solvent to prepare a 20 mmol/L solution. A portion of the 20 mmol/L solution is then collected and diluted 20-fold with the same solvent to prepare a 1 mmol/L test substance solution. If a 5% by mass solution of DMSO in acetonitrile is selected, a 20 mmol/L test substance solution is prepared in the same manner as above. A portion of the solution is then collected and diluted 20-fold with acetonitrile to prepare a 1 mmol/L test substance solution.
# (§2) The plate is firmly sealed with a plate seal (resistant embossed seal (TORAST™ 96-well Seal E Type (TORAST is a registered trademark)), Shimadzu GLC Ltd.) and is shaken on a plate shaker (Titramax 100, Heidolph Instruments). After being spun down in a centrifuge, the reaction solutions are incubated at 25° C. in a light-shielded state for 24 hours.
# (§3) After incubation for 24 hours, the plate seal is removed, and 50 μL of the reaction stop solution is added to each sample to stop the reaction.
# (§4) The depletion of the nucleophilic reagent is calculated from the mean peak area of the nucleophilic reagent by the following equation: […]
# (§5) Ten substances shown in the following table were used for reactivity evaluation. For primary evaluation, the upper three substances were used. […] For secondary evaluation, the lower seven substances were used. The substances selected for the secondary evaluation were substances that are difficult to distinguish between sensitizers and non-sensitizers by analysis using NAC and NAL. As above, the substances selected for the secondary evaluation were five substances that mainly react with cysteine and two substances that mainly react with lysine.
# Using the three substances shown in the following table, 1 mmol/L solutions were prepared and used for testing.
# A solution prepared by dissolving NAC and NAL in a phosphate buffer solution (pH 8.0) prepared in accordance with “(1-2) 100 mmol/L Phosphate Buffer Solution (pH 8.0)” of “(1) Preparation of Various Solutions” above such that the concentration of each nucleophilic reagent was 13.333 μmol/L was used as a nucleophilic reagent stock solution.
# Nucleophilic reagent stock solution: NAC and NAL, 75 μL each
# (§6) Test substance solution: 50 μL
# The procedures described in “(4-2) Reaction” and “(4-3) Reaction Stop” of “(4) Reaction” above were performed.
# In addition, the nucleophilic reagent depletion (%) was determined by the method described in “(6) Data Analysis” above.
SMILES,"depletion for 5-methyl-2,3-hexanedione",depletion for diphenylcyclopropenone,depletion for nonanoyl chloride
CC(=O)N[C@@H](CCCCN)C(=O)N[C@@H](CS)C(=O)NCc1cccc2ccccc12 [Compound 2],16.7%,34.9%,65.2%
CC(=O)N[C@@H](CS)C(=O)N[C@@H](CCCCN)C(=O)N[C@@H](CC(=O)O)C(=O)NCc1cccc2ccccc12 [Compound 4],13.8%,100%,67.6%

# Test: Reactivity of nucleophilic reagent, secondary evaluation with seven substances
# Conditions: all six substances except 5-methyl-2,3-hexanedione
# Excerpt: as §1
# as §2, with “hours. […]” for “hours.”
# as §4
row,SMILES,reactivity with six secondary evaluation substances compared with NAC or NAL
1,CC(=O)N[C@@H](CCCCN)C(=O)N[C@@H](CS)C(=O)NCc1cccc2ccccc12 [Compound 2],higher than that of NAC or NAL alone and the mean depletion
2,CC(=O)N[C@@H](CS)C(=O)N[C@@H](CCCCN)C(=O)N[C@@H](CC(=O)O)C(=O)NCc1cccc2ccccc12 [Compound 4],higher than that of NAC or NAL alone and the mean depletion

# Test: Reactivity of nucleophilic reagent with evaluation substance (depletion, HPLC), primary evaluation
# Conditions: 1 mmol/L test substance solution, 25° C., 24 hours
# Procedure: 1) A nucleophilic reagent is dissolved in DMSO (manufactured by FUJIFILM Wako Pure Chemical Corporation) depending on its molecular weight to prepare a 2 mmol/L nucleophilic reagent solution.
# 2) To a 500 mL container, 149.5 mL of the buffer solution is added using a 50 mL measuring pipette, and 0.5 mL of the 2 mmol/L nucleophilic reagent solution is added and mixed by inversion so that the solution is diluted 300-fold (6.667 μmol/L). This solution is stored in a freezer at −70° C. or lower.
# as §1
# Test substance solutions are prepared on a 96-well plate (U96 PP-0.5 ML NATURAL, Thermo (NUNC)), mainly using a 12-channel pipette, and the reagent is added in the following amount:
# Nucleophilic reagent: 150 μL
# as §6, §2, §3
# The HPLC measurement conditions for the nucleophilic reagents are given below. As the elution conditions, condition 1, 2 or 3 was selected depending on the nucleophilic reagent.
# as §4, §5
row,SMILES,reactivity (nucleophilic reagent depletion) with 2-methyl-2H-isothiazol-3-one
1,CC(=O)N[C@@H](CS)C(=O)N[C@@H](CCCCN)C(=O)N[C@@H](CC(=O)O)C(=O)NCc1cccc2ccccc12 [Compound 4],about 100%
2,NCCCC[C@H](NC(=O)[C@H](CS)NC(=O)CO)C(=O)N[C@@H](CC(=O)O)C(=O)NCc1cccc2ccccc12 [Compound 13],about 100%
3,NCCCCC(NC(=O)[C@H](CS)NC(=O)[C@H](Cc1ccccn1)NC(=O)Cc1ccc2ccccc2c1)C(N)=O (some centres unmarked) [Compound 16],about 100%
4,NCCCCC(NC(=O)[C@H](CS)NC(=O)[C@H](Cc1c[nH]cn1)NC(=O)Cc1ccc2ccccc2c1)C(N)=O (some centres unmarked) [Compound 19],about 100%
5,NCCCCC(NC(=O)[C@H](CS)NC(=O)[C@H](Cc1ccccn1)NC(=O)Cc1ccc2ccccc2c1)C(=O)O (some centres unmarked) [Compound 21],about 100%
6,NCCCCC(NC(=O)[C@H](CS)NC(=O)C(Cc1ccncc1)NC(=O)Cc1ccc2ccccc2c1)C(=O)O (some centres unmarked) [Compound 22],about 100%
7,NCCCCC(NC(=O)[C@H](CS)NC(=O)C(Cc1c[nH]cn1)NC(=O)Cc1ccc2ccccc2c1)C(=O)O (some centres unmarked) [Compound 24],about 100%
8,NCCCC[C@H](NC(=O)C(Cc1ccncc1)NC(=O)Cc1ccc2ccccc2c1)C(=O)NC(CS)C(=O)O (some centres unmarked) [Compound 27],about 100%
9,NCCCC[C@H](NC(=O)C(Cc1c[nH]cn1)NC(=O)Cc1ccc2ccccc2c1)C(=O)NC(CS)C(=O)O (some centres unmarked) [Compound 29],about 100%
10,NCCCCC(NC(=O)Cc1ccc2ccccc2c1)C(=O)N[C@@H](CS)C(=O)O (some centres unmarked) [Compound 30],about 100%
